# Experimental data as given in patent US20240400564A1 (Syndax Pharmaceuticals, Inc, priority 2021, published 2024).
# Assays:
# [1] = system: MLLr leukemia cell line MV4-11; assay: Cell proliferation assay MV4;11 (CellTiter-Glo, 72 hours); type: cell-based; details: Homo sapiens; MV4-11 cells, 72 hours, CellTiter-Glo; read-out: MV4; 11 IC50
# Description: Compounds were evaluated for its capacity to inhibit the proliferation of the MLLr leukemia cell line MV4-11 that harbors an MLL1-AF4 fusion protein. MV4-11 cells were cultured for 72 hours with limiting dilutions of compounds and viability was measured using CellTiter-Glo.
# Compounds were dissolved to obtain as 10 mM solution in DMSO. The stock was diluted 1:5 to the top concentration of 2 mM in 100% DMSO. For IC50 determination, serial 1:3.16 dilutions were prepared in 100% DMSO by diluting 20 μL into 43.5 μL of DMSO for 8 concentrations. Each prepared DMSO solution were further diluted 1:500 in the cell culture media to obtain the 2× dosing solutions. The final concentrations of tested compounds in the cell culture media ranged from 0.632 nM to 2000 nM.
# MV4-11 cells were cultured in IMDM with 10% FBS and 1× Penicillin-Streptomycin at 5% CO2 and 37° C. A cell suspension was prepared containing 15,000 cells/ml in the culture medium and 100 μL of this suspension was added per well to a 96-well cell culture plate. Then, 100 μL of 2× dosing media containing test compounds were added bringing the total volume to 200 μL. These cells were cultured for 72 hours at 37° C. and 5% CO2 in a humidified incubator.
# After 72 hours, the cultured cells were mixed and 100 μL was transferred to a 96-well black plate. Cell Titer Glo (100 μl) was then added to this plate. The plate was mixed with shaking for 15 mins at RT, the luminescence was then measured using Tecan Spark 20M spectrophotometer. Cell Viability (%) was determined by RLU of test/RLU average vehicle control*100 and % max inhibition was determined by 100−(% cell viability remaining at the top concentration of compound).
# hERG = hERG (Homo sapiens, UniProt Q12809); assay: Patch clamp assay (hERG tail currents, whole-cell)
# Chain of hERG (Q12809 whole entry): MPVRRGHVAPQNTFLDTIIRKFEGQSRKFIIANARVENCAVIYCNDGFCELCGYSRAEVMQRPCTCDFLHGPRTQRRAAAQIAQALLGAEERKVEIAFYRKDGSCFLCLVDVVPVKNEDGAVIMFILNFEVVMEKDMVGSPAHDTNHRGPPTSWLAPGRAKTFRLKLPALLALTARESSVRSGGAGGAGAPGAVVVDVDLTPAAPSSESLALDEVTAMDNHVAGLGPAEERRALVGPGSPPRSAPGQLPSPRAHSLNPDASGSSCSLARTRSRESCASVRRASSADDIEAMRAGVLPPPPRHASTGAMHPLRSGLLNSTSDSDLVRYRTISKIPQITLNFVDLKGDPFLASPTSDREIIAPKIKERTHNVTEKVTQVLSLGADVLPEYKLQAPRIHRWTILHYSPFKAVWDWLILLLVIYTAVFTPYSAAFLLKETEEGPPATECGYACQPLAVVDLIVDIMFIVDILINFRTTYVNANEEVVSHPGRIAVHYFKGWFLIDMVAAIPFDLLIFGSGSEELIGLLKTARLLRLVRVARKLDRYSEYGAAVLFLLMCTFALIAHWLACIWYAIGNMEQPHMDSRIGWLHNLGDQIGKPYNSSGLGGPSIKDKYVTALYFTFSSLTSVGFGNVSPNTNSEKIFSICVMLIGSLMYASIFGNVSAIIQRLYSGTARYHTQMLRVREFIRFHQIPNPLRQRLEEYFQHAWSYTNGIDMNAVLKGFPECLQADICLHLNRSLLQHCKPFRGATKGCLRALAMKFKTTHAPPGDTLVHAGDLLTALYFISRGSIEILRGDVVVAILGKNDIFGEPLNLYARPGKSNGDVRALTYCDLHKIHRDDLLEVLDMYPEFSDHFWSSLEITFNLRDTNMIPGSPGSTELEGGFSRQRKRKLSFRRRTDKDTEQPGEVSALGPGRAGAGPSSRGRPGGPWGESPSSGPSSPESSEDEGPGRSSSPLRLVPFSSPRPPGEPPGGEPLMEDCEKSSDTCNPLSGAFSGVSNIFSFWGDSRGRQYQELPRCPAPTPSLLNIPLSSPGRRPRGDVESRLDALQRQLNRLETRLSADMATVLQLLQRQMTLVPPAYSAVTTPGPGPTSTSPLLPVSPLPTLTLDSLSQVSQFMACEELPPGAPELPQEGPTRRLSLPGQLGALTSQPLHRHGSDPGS
IC50 [1] [nM],Structure (SMILES),hERG % Remaining (hERG; 30 μM compound),also measured
100 to 1000,"CC[S@@](=N)(=O)N[C@@H]1CC[C@@H](CN2CCC3(CC2)CN(c2ncncc2Oc2ccc(F)cc2C(=O)N(C(C)C)C(C)C)C3)OC1 (single isomer, unassigned) [Example 226]",–,–
< 100,"CC[S@](=N)(=O)N[C@@H]1CC[C@@H](CN2CCC3(CC2)CN(c2ncncc2Oc2ccc(F)cc2C(=O)N(C(C)C)C(C)C)C3)OC1 (single isomer, unassigned) [Example 227]",–,–
< 100,"CCS(=O)(=O)N[C@@H]1CC[C@@H](CN2CCC3(CC2)CN(c2ncncc2Oc2ccc(F)cc2C(=O)N(C(C)C)[C@@H]2CC[C@H]2O)C3)OC1 (single isomer, unassigned) [Example 256]",–,–
100 to 1000,"CCS(=O)(=O)N[C@@H]1CC[C@@H](CN2CCC3(CC2)CN(c2ncncc2Oc2ccc(F)cc2C(=O)N(C(C)C)[C@H]2CC[C@@H]2O)C3)OC1 (single isomer, unassigned) [Example 257]",–,–
< 100,"CCN(C(=O)c1cc(F)ccc1Oc1cncnc1N1CC2(CCN(C[C@@H]3CC[C@@H](NS(=O)(=O)C4CCOCC4)CO3)CC2)C1)C(C)C [Example 67, N-Ethyl-5-fluoro-N-isopropyl-2-((4-(7-(((2S,5R)-5-((tetrahydro-2H-pyran)-4-sulfonamido)tetrahydro-2H-pyran-2-yl)methyl)-2,7-diazaspiro[3.5]nonan-2-yl)pyrimidin-5-yl)oxy)benzamide]",–,–
< 100,CC(C)N(C(=O)c1cc(F)ccc1Oc1cncnc1N1CC2(CCN(C[C@@H]3CC[C@@H](NS(=O)(=O)C4CCOCC4)CO3)CC2)C1)C(C)C [Example 79],–,–
< 100,"CC(C)N(C(=O)c1cc(F)ccc1Oc1cncnc1N1CC2(CCN(C[C@@H]3CC[C@@H](NS(=O)(=O)c4ccc(=O)n(C)c4)CO3)CC2)C1)C(C)C [Example 92, 5-Fluoro-N,N-diisopropyl-2-((4-(7-(((2S,5R)-5-((1-methyl-6-oxo-1,6-dihydropyridine)-3-sulfonamido)tetrahydro-2H-pyran-2-yl)methyl)-2,7-diazaspiro[3.5]nonan-2-yl)pyrimidin-5-yl)oxy)benzamide]",–,–
< 100,"CC(C)N(CC(F)F)C(=O)c1cc(F)ccc1Oc1cncnc1N1CC2(CCN(C[C@@H]3CC[C@@H](NS(=O)(=O)C4CCOCC4)CO3)CC2)C1 [Example 98, N-(2,2-Difluoroethyl)-5-fluoro-N-isopropyl-2-((4-(7-(((2S,5R)-5-((tetrahydro-2H-pyran)-4-sulfonamido)tetrahydro-2H-pyran-2-yl)methyl)-2,7-diazaspiro[3.5]nonan-2-yl)pyrimidin-5-yl)oxy)benzamide]",–,–

# More lines, now with the values behind:
Structure (SMILES),IC50 [1] [nM],hERG % Remaining (hERG; 30 μM compound),also measured
"CC(C)N(C(=O)c1cc(F)ccc1Oc1cncnc1N1CC2(CCN(C[C@@H]3CC[C@@H](NS(=N)(=O)c4ccccc4)CO3)CC2)C1)C(C)C (mixture of isomers) [Example 228, 5-Fluoro-N,N-diisopropyl-2-((4-(7-(((2S,5R)-5-(phenylsulfonoamidimidamido)tetrahydro-2H-pyran-2-yl)methyl)-2,7-diazaspiro[3.5]nonan-2-yl)pyrimidin-5-yl)oxy)benzamide]",< 100,–,–
"CC(C)N(C(=O)c1cc(F)ccc1Oc1cncnc1N1CC2(CCN(C[C@@H]3CC[C@@H](N[S@@](=N)(=O)c4ccccc4)CO3)CC2)C1)C(C)C (single isomer, unassigned) [Example 229]",< 100,–,–
"CC(C)N(C(=O)c1cc(F)ccc1Oc1cncnc1N1CC2(CCN(C[C@@H]3CC[C@@H](N[S@](=N)(=O)c4ccccc4)CO3)CC2)C1)C(C)C (single isomer, unassigned) [Example 230]",< 100,–,–
"CC(C)N(C)C(=O)c1cc(F)ccc1Oc1cncnc1N1CC2(CCN(C[C@@H]3CC[C@@H](NS(=O)(=O)c4ccn(C)n4)CO3)CC2)C1 [Example 53, Fluoro-N-isopropyl-N-methyl-2-((4-(7-(((2S,5R)-5-((1-methyl-1H-pyrazole)-3-sulfonamido)tetrahydro-2H-pyran-2-yl)methyl)-2,7-diazaspiro[3.5]nonan-2-yl)pyrimidin-5-yl)oxy)benzamide]",< 100,–,–
"Cc1nc(S(=O)(=O)N[C@@H]2CC[C@@H](CN3CCC4(CC3)CN(c3ncncc3Oc3ccc(F)cc3C(=O)N(C)C(C)C)C4)OC2)cs1 [Example 54, 5-Fluoro-N-isopropyl-N-methyl-2-((4-(7-(((2S,5R)-5-((2-methylthiazole)-4-sulfonamido)tetrahydro-2H-pyran-2-yl)methyl)-2,7-diazaspiro[3.5]nonan-2-yl)pyrimidin-5-yl)oxy)benzamide]",< 100,–,–
"CCN(C(=O)c1cc(F)ccc1Oc1cncnc1N1CC2(CCN(C[C@@H]3CC[C@@H](NS(=O)(=O)N4CC(F)(F)C4)CO3)CC2)C1)C(C)C [Example 70, 2-((4-(7-(((2S,5R)-5-((3,3-Difluoroazetidine)-1-sulfonamido)tetrahydro-2H-pyran-2-yl)methyl)-2,7-diazaspiro[3.5]nonan-2-yl)pyrimidin-5-yl)oxy)-N-ethyl-5-fluoro-N-isopropylbenzamide]",< 100,–,–
"CCN(C(=O)c1cc(F)ccc1Oc1cncnc1N1CC2(CCN(C[C@@H]3CC[C@@H](NS(=O)(=O)c4ccc(=O)n(C)c4)CO3)CC2)C1)C(C)C [Example 74, N-Ethyl-5-fluoro-N-isopropyl-2-((4-(7-(((2S,5R)-5-((1-methyl-6-oxo-1,6-dihydropyridine)-3-sulfonamido)tetrahydro-2H-pyran-2-yl)methyl)-2,7-diazaspiro[3.5]nonan-2-yl)pyrimidin-5-yl)oxy)benzamide]",< 100,–,–
"CC(C)N(C(=O)c1cc(F)ccc1Oc1cncnc1N1CC2(CCN(C[C@@H]3CC[C@@H](NS(=O)(=O)N4CC5(CCOC5)C4)CO3)CC2)C1)C(C)C [Example 223, 2-((4-(7-(((2S,5R)-5-(6-Oxa-2-azaspiro[3.4]octane-2-sulfonamido)tetrahydro-2H-pyran-2-yl)methyl)-2,7-diazaspiro[3.5]nonan-2-yl)pyrimidin-5-yl)oxy)-5-fluoro-N,N-diisopropylbenzamide]",–,+++ (≥66%),–
"CC(C)N(CC(F)F)C(=O)c1cc(F)ccc1Oc1cncnc1N1CC2(CCN(C[C@@H]3CC[C@@H](NS(=O)(=O)N(C)CCO)CO3)CC2)C1 [Example 239, N-(2,2-difluoroethyl)-5-fluoro-2-((4-(7-(((2S,5R)-5-((N-(2-hydroxyethyl)-N-methylsulfamoyl)amino)tetrahydro-2H-pyran-2-yl)methyl)-2,7-diazaspiro[3.5]nonan-2-yl)pyrimidin-5-yl)oxy)-N-isopropylbenzamide]",–,+++ (≥66%),–
"CC(C)N(CC(F)F)C(=O)c1cc(F)ccc1Oc1cncnc1N1CC2(CCN(C[C@@H]3CC[C@@H](NS(N)(=O)=O)CO3)CC2)C1 [Example 240, N-(2,2-Difluoroethyl)-5-fluoro-N-isopropyl-2-((4-(7-(((2S,5R)-5-(sulfamoylamino)tetrahydro-2H-pyran-2-yl)methyl)-2,7-diazaspiro[3.5]nonan-2-yl)pyrimidin-5-yl)oxy)benzamide]",–,+++ (≥66%),–
"CC(C)N(C(=O)c1cc(F)ccc1Oc1cncnc1N1CC2(CCN(C[C@@H]3CC[C@@H](NS(=O)(=O)N4CCC4)CO3)CC2)C1)C1COC1 [Example 248, 2-((4-(7-(((2S,5R)-5-(Azetidine-1-sulfonamido)tetrahydro-2H-pyran-2-yl)methyl)-2,7-diazaspiro[3.5]nonan-2-yl)pyrimidin-5-yl)oxy)-5-fluoro-N-isopropyl-N-(oxetan-3-yl)benzamide]",–,+++ (≥66%),–
"CC(C)N(C(=O)c1cc(F)ccc1Oc1cncnc1N1CC2(CCN(C[C@@H]3CC[C@@H](NS(=O)(=O)N(C)C)CO3)CC2)C1)C1COC1 [Example 249, 2-((4-(7-(((2S,5R)-5-((N,N-Dimethylsulfamoyl)amino)tetrahydro-2H-pyran-2-yl)methyl)-2,7-diazaspiro[3.5]nonan-2-yl)pyrimidin-5-yl)oxy)-5-fluoro-N-isopropyl-N-(oxetan-3-yl)benzamide]",–,+++ (≥66%),–
"CCS(=O)(=O)N[C@@H]1CC[C@@H](CN2CCC3(CC2)CN(c2ncncc2Oc2ccc(F)cc2C(=O)N(C(C)C)[C@@H]2CC[C@@H]2O)C3)OC1 [Example 258, 2-((4-(7-(((2S,5R)-5-(Ethylsulfonamido)tetrahydro-2H-pyran-2-yl)methyl)-2,7-diazaspiro[3.5]nonan-2-yl)pyrimidin-5-yl)oxy)-5-fluoro-N-((1R,2S)-2-hydroxycyclobutyl)-N-isopropylbenzamide]",–,++ (233% and ≤66%),hERG % Remaining (hERG; 10 μM compound): +++ (≥66%)
CCN(C(=O)c1cc(F)ccc1Oc1cncnc1N1CC2(CCN(C[C@H]3CC[C@H](NS(=O)(=O)CC)CC3)CC2)C1)C(C)C [SNDX-5613],–,++ (233% and ≤66%),hERG % Remaining (hERG; 1 μM compound): +++ (≥66%); hERG % Remaining (hERG; 3 μM compound): +++ (≥66%); hERG % Remaining (hERG; 10 μM compound): ++ (233% and ≤66%); hERG % Remaining (hERG; 100 μM compound): + (<33%); hERG IC50 (μM) (hERG; hERG stably transfected HEK 293 cells): + (<25 PM)
